Test results published in patent US6656694B2, “Method for identifying a ligand for a biological substrate” (Theravance, Inc., priority 2001, dated 2003).
pKd: −log10 of the molar value.

How the values were obtained:
[1] = biological target: T1, human cloned muscarinic receptor (M2), second binding site (Homo sapiens, UniProt P08172); test: Screening of candidate compounds: effect on 3H-NMS binding in the presence of multibinding Compound A; settings: candidate 500 nM; Compound A 200 nM; 3H-NMS 10 nM; PBS pH 7.4; CHO membranes; 1 hour at 37° C.; B and C relative to each other
T1 sequence (P08172 1-466): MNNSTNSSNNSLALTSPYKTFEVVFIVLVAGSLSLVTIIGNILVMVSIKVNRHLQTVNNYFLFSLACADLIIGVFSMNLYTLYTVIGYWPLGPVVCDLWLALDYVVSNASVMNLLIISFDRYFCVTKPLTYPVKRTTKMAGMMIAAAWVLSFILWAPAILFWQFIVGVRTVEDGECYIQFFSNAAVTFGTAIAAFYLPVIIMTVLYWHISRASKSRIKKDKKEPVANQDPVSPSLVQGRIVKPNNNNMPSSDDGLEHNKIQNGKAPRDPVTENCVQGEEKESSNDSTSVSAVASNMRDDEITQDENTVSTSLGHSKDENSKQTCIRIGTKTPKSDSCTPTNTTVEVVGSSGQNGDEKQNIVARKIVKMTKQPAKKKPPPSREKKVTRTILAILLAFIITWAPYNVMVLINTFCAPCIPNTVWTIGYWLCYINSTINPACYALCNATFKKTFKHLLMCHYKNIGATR
Procedure: Into each well in a 96 well place, the following are added:
a) Compound A, such that the final concentration in the well is 200 nM (10 times the Kd of Compound A) in phosphate buffered saline at pH 7.4;
b) tritiated N-methyl scopalamine (^3H-NMS), such that the final concentration in each well is 10 nM (0.5 times the Kd of ^3H-NMS);
c) a candidate compound at a final concentration of 500 nM, the candidate compound being selected from amines including Compound B and Compound C (which are commercially available); [drawing 5]
(§1) d) membrane containing human cloned muscarinic receptor (prepared by expressing M2 coding plasmid in CHO cells using well-known procedures and reagents).
(§2) The 96 well plate is then incubated for 1 hour at 37° C. After incubation, the membranes are filtered to separate bound from unbound ^3H-NMS. Scintillant is then added, and the plate is placed in a counter to measure the radioactivity in each well.
The amount of radioactivity determined for each well is then compared to a pre-determined amount of radioactivity measured using the above procedure in the absence of a candidate compound. […]

[2] = biological target: T2, human cloned muscarinic receptor (M2) (Homo sapiens, UniProt P08172); test: Binding of Compound D to the receptor measured using 3H-NMS; settings: stated more potent than Compound A
T2 sequence (P08172 1-466): T1 sequence (P08172 1-466)
Procedure: as §1, §2
The binding of Compound D to the receptor is then measured using ^3H-NMS.

binding to the receptor (radioactivity of bound 3H-NMS observed) [1] | pKd [2] | Compound
bind weakly |  | O=C(Nc1ccc2ccccc2c1)C1CC(O)CN1 (stereo not drawn) [Compound B]
bind strongly |  | CNC1CCN(Cc2c(OC)cccc2OC)CC1 [Compound C]
 | 8.70 | COc1cccc(OC)c1CN1CCC(N(C)CCCCCCCN2CCC(OC(=O)Nc3ccccc3-c3ccccc3)CC2)CC1 [Compound D]
